Results from ChEMBL document CHEMBL5058643, “Data for DCP probe BI-2081” (2022).

Key:
Settings in all cases: Compound concentration 10.0 uM
[1] = target: Histamine H2 receptor (Homo sapiens) (UniProt P25021)
[2] = target: Sodium-dependent dopamine transporter (Homo sapiens) (UniProt Q01959)
[3] = target: T1, Alpha-2A adrenergic receptor (Homo sapiens) (UniProt P08913)
T1 sequence (whole entry): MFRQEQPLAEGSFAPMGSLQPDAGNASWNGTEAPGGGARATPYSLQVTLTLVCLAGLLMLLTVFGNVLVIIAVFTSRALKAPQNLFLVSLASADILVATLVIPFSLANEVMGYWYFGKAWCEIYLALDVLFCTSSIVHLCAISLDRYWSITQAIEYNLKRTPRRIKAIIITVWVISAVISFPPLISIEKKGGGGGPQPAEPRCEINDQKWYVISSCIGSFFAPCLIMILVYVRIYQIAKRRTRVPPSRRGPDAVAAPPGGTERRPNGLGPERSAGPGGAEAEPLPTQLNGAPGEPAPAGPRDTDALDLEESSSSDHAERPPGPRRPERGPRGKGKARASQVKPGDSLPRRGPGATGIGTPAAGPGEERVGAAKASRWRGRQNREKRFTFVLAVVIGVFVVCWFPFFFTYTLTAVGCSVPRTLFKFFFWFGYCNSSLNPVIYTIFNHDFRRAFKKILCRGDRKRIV

[4] = target: 5-hydroxytryptamine receptor 7 (Homo sapiens) (UniProt P34969)
[5] = target: T2, Alpha-1B adrenergic receptor (Homo sapiens) (UniProt P35368)
T2 sequence (whole entry): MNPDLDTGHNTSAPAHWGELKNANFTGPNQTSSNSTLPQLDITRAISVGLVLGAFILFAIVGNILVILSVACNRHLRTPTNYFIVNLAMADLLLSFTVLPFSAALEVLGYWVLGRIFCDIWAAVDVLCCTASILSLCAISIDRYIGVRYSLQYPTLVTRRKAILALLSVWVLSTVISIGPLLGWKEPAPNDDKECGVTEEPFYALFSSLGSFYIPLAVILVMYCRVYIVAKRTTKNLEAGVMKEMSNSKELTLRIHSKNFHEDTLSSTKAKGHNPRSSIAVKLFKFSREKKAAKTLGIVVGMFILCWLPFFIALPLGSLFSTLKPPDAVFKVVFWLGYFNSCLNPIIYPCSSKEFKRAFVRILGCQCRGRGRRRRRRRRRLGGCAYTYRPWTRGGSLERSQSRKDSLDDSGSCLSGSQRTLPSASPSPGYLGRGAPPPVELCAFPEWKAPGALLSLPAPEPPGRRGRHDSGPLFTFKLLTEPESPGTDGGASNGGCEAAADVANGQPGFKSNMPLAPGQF

[6] = target: T3, Alpha-1D adrenergic receptor (Homo sapiens) (UniProt P25100)
T3 sequence (whole entry): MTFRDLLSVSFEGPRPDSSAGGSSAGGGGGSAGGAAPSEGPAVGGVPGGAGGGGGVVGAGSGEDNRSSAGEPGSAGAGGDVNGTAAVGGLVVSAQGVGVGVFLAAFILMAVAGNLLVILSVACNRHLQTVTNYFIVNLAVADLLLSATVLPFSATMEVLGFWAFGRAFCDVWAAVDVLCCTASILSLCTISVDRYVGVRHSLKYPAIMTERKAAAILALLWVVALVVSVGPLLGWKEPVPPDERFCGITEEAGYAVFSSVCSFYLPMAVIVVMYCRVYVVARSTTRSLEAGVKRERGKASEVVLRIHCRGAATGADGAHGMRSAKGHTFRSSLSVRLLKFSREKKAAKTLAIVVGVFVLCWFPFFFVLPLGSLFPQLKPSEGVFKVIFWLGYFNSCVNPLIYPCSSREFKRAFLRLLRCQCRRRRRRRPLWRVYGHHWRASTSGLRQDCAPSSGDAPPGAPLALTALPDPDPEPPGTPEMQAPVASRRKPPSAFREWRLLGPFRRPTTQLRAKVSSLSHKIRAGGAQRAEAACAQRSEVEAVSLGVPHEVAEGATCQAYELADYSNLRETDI

[7] = target: Muscarinic acetylcholine receptor M5 (Homo sapiens) (UniProt P08912)
[8] = target: Cholecystokinin receptor type A (Homo sapiens) (UniProt P32238); assay: CCKA/H Eurofins SafetyScreen44 (BI)
[9] = target: 5-hydroxytryptamine receptor 1B (Homo sapiens) (UniProt P28222)
[10] = target: T4, 5-hydroxytryptamine receptor 1A (Homo sapiens) (UniProt P08908)
T4 sequence (whole entry): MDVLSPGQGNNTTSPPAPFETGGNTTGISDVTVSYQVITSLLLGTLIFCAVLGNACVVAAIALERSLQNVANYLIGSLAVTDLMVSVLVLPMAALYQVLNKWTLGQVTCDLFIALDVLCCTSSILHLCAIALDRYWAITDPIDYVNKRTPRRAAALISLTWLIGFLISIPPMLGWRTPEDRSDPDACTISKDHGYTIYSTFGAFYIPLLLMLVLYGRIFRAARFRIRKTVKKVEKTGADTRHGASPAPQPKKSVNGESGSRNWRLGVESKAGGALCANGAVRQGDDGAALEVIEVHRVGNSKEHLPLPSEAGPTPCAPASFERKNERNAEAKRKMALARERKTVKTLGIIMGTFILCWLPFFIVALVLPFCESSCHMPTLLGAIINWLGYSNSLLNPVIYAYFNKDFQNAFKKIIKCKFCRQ

[11] = target: 5-hydroxytryptamine receptor 5A (Homo sapiens) (UniProt P47898)
[12] = target: Mu-type opioid receptor (Homo sapiens) (UniProt P35372)
[13] = target: Sodium-dependent serotonin transporter (Homo sapiens) (UniProt P31645)
[14] = target: Delta-type opioid receptor (Homo sapiens) (UniProt P41143)
[15] = target: Kappa-type opioid receptor (Homo sapiens) (UniProt P41145)
Rattus norvegicus = species on record: Rattus norvegicus
[16] = target: Beta-3 adrenergic receptor (Homo sapiens) (UniProt P13945)
[17] = target: 5-hydroxytryptamine receptor 1D (Homo sapiens) (UniProt P28221)
[18] = target: Histamine H1 receptor (Homo sapiens) (UniProt P35367)
[19] = target: Sigma non-opioid intracellular receptor 1 (Homo sapiens) (UniProt Q99720)
Chain of Sigma non-opioid intracellular receptor 1 (Homo sapiens) (Q99720 whole entry): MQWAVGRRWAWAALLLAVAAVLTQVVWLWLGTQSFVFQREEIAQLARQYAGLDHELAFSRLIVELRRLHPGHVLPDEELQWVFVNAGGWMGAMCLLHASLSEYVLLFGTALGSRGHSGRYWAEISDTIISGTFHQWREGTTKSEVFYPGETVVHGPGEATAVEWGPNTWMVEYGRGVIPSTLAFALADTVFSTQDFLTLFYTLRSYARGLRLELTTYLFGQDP

Chain of Delta-type opioid receptor (Homo sapiens) (P41143 whole entry): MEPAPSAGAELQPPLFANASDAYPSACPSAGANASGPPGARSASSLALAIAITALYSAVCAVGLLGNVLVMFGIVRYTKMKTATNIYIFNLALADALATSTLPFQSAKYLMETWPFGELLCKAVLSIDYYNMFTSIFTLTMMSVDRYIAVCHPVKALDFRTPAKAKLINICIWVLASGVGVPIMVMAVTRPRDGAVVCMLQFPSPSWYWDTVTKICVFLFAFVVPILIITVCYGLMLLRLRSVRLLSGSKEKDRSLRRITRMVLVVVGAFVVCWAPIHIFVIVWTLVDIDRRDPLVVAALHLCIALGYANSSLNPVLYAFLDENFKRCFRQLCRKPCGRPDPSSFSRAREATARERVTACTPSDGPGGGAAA
Chain of 5-hydroxytryptamine receptor 5A (Homo sapiens) (P47898 whole entry): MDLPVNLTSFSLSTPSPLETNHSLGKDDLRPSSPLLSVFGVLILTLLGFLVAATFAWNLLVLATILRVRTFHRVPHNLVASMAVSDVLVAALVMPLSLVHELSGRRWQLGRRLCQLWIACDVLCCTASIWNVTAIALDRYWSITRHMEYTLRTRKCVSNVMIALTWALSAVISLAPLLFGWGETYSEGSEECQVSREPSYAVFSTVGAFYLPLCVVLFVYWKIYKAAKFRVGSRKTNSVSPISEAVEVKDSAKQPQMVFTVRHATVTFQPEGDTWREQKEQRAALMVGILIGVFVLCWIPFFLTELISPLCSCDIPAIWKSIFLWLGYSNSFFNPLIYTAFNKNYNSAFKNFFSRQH
Chain of Sodium-dependent serotonin transporter (Homo sapiens) (P31645 whole entry, looked up): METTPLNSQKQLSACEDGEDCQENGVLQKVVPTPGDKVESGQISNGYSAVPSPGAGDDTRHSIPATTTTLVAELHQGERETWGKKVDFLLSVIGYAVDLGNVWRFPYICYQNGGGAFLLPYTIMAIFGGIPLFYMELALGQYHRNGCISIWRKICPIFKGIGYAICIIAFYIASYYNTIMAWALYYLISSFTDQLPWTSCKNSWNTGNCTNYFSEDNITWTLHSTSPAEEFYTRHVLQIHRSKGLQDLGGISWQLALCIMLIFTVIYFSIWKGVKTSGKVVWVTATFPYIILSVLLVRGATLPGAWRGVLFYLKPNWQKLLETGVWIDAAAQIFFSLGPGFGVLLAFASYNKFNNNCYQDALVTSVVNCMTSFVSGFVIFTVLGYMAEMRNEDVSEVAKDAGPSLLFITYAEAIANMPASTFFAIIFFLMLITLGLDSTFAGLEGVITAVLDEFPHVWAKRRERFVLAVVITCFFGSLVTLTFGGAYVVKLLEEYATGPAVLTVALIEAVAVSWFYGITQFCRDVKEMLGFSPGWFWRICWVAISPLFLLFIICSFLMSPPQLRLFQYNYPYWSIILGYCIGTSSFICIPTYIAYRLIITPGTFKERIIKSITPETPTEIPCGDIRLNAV
Chain of Mu-type opioid receptor (Homo sapiens) (P35372 whole entry): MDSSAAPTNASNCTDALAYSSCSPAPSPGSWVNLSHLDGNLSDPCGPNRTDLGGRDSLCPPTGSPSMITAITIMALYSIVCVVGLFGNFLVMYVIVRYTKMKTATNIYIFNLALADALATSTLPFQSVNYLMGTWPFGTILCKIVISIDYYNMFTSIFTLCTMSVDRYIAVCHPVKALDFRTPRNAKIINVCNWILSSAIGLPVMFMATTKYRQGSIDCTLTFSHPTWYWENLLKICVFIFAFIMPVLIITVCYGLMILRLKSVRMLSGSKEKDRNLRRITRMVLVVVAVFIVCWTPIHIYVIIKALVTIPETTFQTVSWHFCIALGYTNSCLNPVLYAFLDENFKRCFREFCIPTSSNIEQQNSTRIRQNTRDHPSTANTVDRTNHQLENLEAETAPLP
Chain of Kappa-type opioid receptor (Homo sapiens) (P41145 whole entry): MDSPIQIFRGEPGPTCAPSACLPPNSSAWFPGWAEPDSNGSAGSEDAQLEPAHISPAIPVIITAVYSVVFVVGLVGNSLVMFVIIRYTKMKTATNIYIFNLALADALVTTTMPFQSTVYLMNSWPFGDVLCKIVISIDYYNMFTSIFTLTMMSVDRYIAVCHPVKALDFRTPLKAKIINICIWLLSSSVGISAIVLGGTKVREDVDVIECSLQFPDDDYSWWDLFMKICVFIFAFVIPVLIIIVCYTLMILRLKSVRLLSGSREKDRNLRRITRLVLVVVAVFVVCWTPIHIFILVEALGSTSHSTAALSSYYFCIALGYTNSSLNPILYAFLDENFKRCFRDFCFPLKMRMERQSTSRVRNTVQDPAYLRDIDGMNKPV
Chain of Muscarinic acetylcholine receptor M5 (Homo sapiens) (P08912 whole entry): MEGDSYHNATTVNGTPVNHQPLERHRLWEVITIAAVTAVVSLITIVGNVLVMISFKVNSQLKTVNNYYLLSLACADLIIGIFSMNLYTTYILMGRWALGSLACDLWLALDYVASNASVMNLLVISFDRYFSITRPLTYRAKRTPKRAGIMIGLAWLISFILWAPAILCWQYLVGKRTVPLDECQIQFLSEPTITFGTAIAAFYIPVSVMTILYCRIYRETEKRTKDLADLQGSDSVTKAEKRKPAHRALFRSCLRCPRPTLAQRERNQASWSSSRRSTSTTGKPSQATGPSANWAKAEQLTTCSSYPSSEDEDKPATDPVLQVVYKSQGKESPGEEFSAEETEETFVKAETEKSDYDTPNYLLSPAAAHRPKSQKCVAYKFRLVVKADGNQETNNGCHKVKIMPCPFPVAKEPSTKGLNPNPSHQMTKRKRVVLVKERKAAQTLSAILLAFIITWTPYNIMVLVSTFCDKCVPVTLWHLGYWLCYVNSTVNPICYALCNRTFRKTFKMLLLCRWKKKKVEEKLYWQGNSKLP
Chain of Beta-3 adrenergic receptor (Homo sapiens) (P13945 whole entry, looked up): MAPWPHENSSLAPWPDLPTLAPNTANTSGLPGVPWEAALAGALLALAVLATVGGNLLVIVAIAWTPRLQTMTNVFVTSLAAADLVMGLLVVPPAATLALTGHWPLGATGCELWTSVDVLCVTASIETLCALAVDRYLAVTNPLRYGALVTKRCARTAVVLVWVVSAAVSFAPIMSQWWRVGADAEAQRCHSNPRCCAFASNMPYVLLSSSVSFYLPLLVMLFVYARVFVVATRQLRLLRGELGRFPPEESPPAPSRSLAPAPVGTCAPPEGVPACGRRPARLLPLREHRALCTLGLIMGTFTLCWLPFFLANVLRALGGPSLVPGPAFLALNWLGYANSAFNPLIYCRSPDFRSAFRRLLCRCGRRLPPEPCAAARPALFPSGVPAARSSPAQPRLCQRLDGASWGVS
Chain of Histamine H2 receptor (Homo sapiens) (P25021 whole entry): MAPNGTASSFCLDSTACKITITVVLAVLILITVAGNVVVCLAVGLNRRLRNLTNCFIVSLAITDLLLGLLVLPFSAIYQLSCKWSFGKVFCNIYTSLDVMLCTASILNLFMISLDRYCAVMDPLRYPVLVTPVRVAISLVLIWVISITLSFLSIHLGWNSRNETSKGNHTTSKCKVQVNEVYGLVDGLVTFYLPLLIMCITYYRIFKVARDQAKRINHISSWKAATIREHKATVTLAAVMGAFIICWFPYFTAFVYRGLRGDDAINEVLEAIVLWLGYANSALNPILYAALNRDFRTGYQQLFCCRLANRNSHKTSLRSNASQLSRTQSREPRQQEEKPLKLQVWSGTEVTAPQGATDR
Chain of 5-hydroxytryptamine receptor 1B (Homo sapiens) (P28222 whole entry): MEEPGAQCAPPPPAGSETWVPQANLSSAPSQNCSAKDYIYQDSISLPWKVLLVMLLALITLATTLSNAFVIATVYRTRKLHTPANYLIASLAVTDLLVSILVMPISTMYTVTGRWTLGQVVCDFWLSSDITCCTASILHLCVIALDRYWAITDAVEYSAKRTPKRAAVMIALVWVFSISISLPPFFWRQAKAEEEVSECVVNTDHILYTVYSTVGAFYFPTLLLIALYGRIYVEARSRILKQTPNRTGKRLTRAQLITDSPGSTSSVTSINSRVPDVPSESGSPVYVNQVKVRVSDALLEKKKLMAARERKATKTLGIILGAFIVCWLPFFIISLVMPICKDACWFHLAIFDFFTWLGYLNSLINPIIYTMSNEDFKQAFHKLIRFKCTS
Chain of 5-hydroxytryptamine receptor 7 (Homo sapiens) (P34969 whole entry): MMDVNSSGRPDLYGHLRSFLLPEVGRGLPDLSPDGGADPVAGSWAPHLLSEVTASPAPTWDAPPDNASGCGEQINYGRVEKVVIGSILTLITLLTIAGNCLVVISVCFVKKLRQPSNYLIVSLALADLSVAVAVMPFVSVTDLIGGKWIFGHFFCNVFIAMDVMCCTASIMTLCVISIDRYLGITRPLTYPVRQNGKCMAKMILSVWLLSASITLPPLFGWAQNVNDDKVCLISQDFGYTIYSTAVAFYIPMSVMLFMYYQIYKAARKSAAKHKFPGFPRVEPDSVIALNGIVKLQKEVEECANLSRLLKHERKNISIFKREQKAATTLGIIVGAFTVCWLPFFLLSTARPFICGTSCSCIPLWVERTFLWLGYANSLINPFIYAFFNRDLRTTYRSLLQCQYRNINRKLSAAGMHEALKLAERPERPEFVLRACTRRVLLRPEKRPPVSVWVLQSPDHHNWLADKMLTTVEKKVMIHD
Chain of 5-hydroxytryptamine receptor 1D (Homo sapiens) (P28221 whole entry): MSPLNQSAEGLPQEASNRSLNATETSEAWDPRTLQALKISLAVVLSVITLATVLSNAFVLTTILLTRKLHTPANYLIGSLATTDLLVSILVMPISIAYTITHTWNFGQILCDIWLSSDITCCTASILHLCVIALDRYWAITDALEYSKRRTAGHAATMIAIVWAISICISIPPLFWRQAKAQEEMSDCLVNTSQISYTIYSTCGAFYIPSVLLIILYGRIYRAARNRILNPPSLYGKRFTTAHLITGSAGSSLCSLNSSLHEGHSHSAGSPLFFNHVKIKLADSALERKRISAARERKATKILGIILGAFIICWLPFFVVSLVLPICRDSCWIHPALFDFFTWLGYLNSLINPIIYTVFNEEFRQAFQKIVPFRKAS

COCCCS(=O)(=O)c1cc(C)c(-c2ccc(F)c3c2CC[C@H]3Oc2ccc3c(c2)OC[C@H]3CC(=O)O)c(C)c1
inactive: inhibition [1] 15% | inhibition [2] 1.43% | inhibition [3] 5.14% | inhibition [4] 3.29% | inhibition [5] -4.9% | inhibition [6] -5.9% | inhibition [7] -1.63% | residual activity [8] 82% | inhibition [9] 5.08% | inhibition [10] 31.1% | inhibition [11] 9.98% | inhibition [12] 13.7% | inhibition [13] -1.62% | inhibition [14] 20.8% | inhibition [15] 20.6% | inhibition (Rattus norvegicus) 36.1% | inhibition [16] 11.6% | inhibition [17] -3.85% | inhibition [18] -1.92% | inhibition [19] 15.2%

Cc1cc(OCCC(C)(C)O)cc(C)c1-c1ccc(F)c2c1CC[C@H]2Oc1ccc2c(c1)OC[C@H]2CC(=O)O
inactive: inhibition [1] 8.54% | inhibition [2] 26.8% | inhibition [3] 16.6% | inhibition [4] 13% | inhibition [5] -7.32% | inhibition [6] 5.84% | inhibition [7] -4.38% | residual activity [8] 103% | inhibition [9] 18.6% | inhibition [10] 22.6% | inhibition [11] 5.48% | inhibition [12] 15.6% | inhibition [13] 4.25% | inhibition [14] 24.4% | inhibition [15] 8.37% | inhibition (Rattus norvegicus) 40.4% | inhibition [16] 20.2% | inhibition [17] 6.65% | inhibition [18] 10.3% | inhibition [19] 25.4%
